Data as given in US4925846A, “2-thiazolyl-imidazo[1,2,-a]pyrimidines” (Roussel Uclaf, priority 1986, dated 1990).
pIC50: −log10 of the molar value.

Legend:
benzodiazepine receptor = assay: Benzodiazepine receptor binding (FRB), [3H]-flunitrazepam displacement; details: 0.6 nM [3H] flunitrazepam, rat forebrain membrane preparations; read-out: FRB (IC50, inhibition of specific binding of [3H]-flunitrazepam)
Protocol: The compounds of formula I are agents which interact with benzodiazepine receptors in the brain, and are useful as minor tranquillizers and for the treatment of obesity or cognitive impairment. Screening for benzodiazepine receptor binding (FRB) was carried out by the method described in published British Patent No. 2,128,989. The values given in Table II are expressed in terms of IC50 (nM).
The affinity of the compounds for the benzodiazepine receptor was assessed using the radioligand [^3 H]-flunitrazepam by modification of the original radioceptor binding method of SQUIRES et al [Nature, (1977), Vol. 266, p. 732].

DBA2 mice = assay: Potentiation of threshold seizures induced by audiogenic stimulation in DBA2 mice; type: in vivo; details: Mus musculus, ip, 0.5 h, i.p., 30 mins pretest, read-out: ED50, potentiation of audiogenic threshold seizures to full tonic seizures
Protocol: (§1) Benzodiazepine inverse agonists properties are indicated by the following tests.
(a) Potentiation of threshold seizures induced by audiogenic stimulation in DBA2 mice [Jensen et al--Life Sciences 33, 393-9 (1983)], DBA2 mice are subjected to audio stimulation. The threshold seizure characteristics (myoclonus, running) are potentiated by active compounds to full tonic seizures and ED50 is calculated.

CD1 mice = assay: Potentiation of seizures induced by subcutaneous injection of leptazol to CD1 mice; type: in vivo; details: Mus musculus, ip, 0.5 h, i.p., 30 mins pretest, read-out: ED50, potentiation of leptazol-induced tonic seizures
Protocol: as §1
(b) Potentiation of seizures induced by subcutaneous injection of leptazol to CD1 mice.
A dose of leptazol is selected to give 10 to 20% tonic seizures in untreated CD1 mice. Active compounds increase the percentage of tonic seizures and the ED50 is calculated by the method of Lichfield and Wilcoxon (J. Pharmacol Exp. Ther. (1949) 96, 99).

Wistar rats = assay: Induction of suprahyoid muscle twitching in urethane anaesthetised Wistar rats; type: in vivo; details: Rattus norvegicus, ip, urethane anaesthetised Wistar rats pretreated with nialamide; read-out: MED, increase of amplitude and/or rate of suprahyoid muscle twitch
Text: as §1
(c) […] of suprahyoid muscle twitching in urethane anaesthetised Wistar rats [James & Gardner--Europ. J. Pharmacol. 113, 223-8 (1985)]. Wistar rats pretreated with nialamide are anaesthetised with urethane and the suprahyoid muscles exposed. These muscles spontaneously twitch and active compounds increase the amplitude and/or rate of twitch.

| SMILES | pIC50 (benzodiazepine receptor) | other results |
| --- | --- | --- |
| CCc1csc(-c2cn3c(C)c(CC)c(OC)nc3n2)n1 [Example 2, 6-Ethyl-2-(4-ethylthiazol-2-yl)-7-methoxy-5-methylimidazo[1,2-a]pyrimidine] | 6.66 |  |
| CCc1c(SC)nc2nc(-c3nc(C)cs3)cn2c1C [Example 5, 6-Ethyl-5-methyl-2-(4-methylthiazol-2-yl)-7-methylthioimidazo[1,2-a]pyrimidine] | 7.10 |  |
| CCc1c(OC)nc2nc(-c3nc(C)c(C)s3)cn2c1C [Example 3, 2-(4,5-Dimethylthiazol-2-yl)-6-ethyl-7-methoxy-5-methylimidazo[1,2-a]pyrimidine] | 5.60 |  |
| CCOC(=O)c1csc(-c2cn3c(C)c(CC)c(OC)nc3n2)n1 [Example 4, Ethyl 2-(6-ethyl-7-methoxy-5-methylimidazo[1,2-a]pyrimidin-2-yl)-thiazole-4-carboxylate] | 5.55 |  |
| C=CCc1c(OC)nc2nc(-c3nc(C)cs3)cn2c1C [Example 8, 6-Allyl-7-methoxy-5-methyl-2-(4-methylthiazol-2-yl)imidazo[1,2-a]pyrimidine] | 7.00 |  |
| CCc1c(OC)nc2nc(-c3nc(C(F)(F)F)cs3)cn2c1C [Example 6, 6-Ethyl-7-methoxy-5-methyl-2-(4-trifluoromethylthiazol-2-yl)-imidazol[1,2-a]pyrimidine] | 5.70 |  |
| COc1nc2nc(-c3nc(C)cs3)cn2c2c1CCCC2 [Example 7, 5-Methoxy-2-(4-methylthiazol-2-yl)-6,7,8,9-tetrahydroimidazo[1,2-a]quinazoline] | 7.66 |  |
| CCc1c(OC)nc2nc(-c3nc(C)cs3)cn2c1C [Example 1, 6-Ethyl-7-methoxy-5-methyl-2-(4-methylthiazol-2-yl)-imidazo[1,2-a]pyrimidine] | 6.95 | ED50 (DBA2 mice): 3 mg/kg; ED50 (CD1 mice): 50 mg/kg; minimal effective dose (Wistar rats): 10 mg/kg |
| CCc1c(OC)nc2nc(-c3nccs3)cn2c1C [Example 10, 6-Ethyl-7-methoxy-5-methyl-2-(thiazol-2-yl)imidazo[1,2-a]pyrimidine] | 6.70 |  |
| CCCc1c(OC)nc2nc(-c3nc(C)cs3)cn2c1C [Example 9, 7-Methoxy-5-methyl-2-(4-methylthiazol-2-yl)-6-propylimidazo[1,2-a]pyrimidine] | 7.00 |  |
